# Data published in PMC5770468, “Cardiac glycoside/aglycones inhibit HIV-1 gene expression by a mechanism requiring MEK1/2-ERK1/2 signaling” (Scientific Reports, 2018).
# Tests used:
# [1] = parameters: method as in PMID 23555254, PMID 17706876, PMID 6409639; conditions: cited from earlier work
# [2] = tested on: HIV-1 (Gag) gene expression; conditions: HeLa rtTA-HIV-ΔMls cells; read-out: IC90, HIV-1 (Gag) gene expression (digoxin, published); cited from earlier work
# [3] = tested on: HeLa rtTA-HIV(Gag-GFP) cells; type: cell-based, human; conditions: 220 nM
# Method: Using the same methods and conditions described for HeLa rtTA-HIV-ΔMls cells, HeLa rtTA-HIV(Gag-GFP) cells were seeded in 48-/12-well plates and pretreated with/without pathway inhibitor prior to treatment with drug/compounds and Dox. Equal concentrations of DMSO were present in each experiment. HIV-1 gene expression was determined by detecting Gag-GFP fluorescence in cells by plate scans using a Typhoon Imager 9400 (Amersham Biosciences) or Typhoon FLA 9400 (GE) on ImageQuant, cell lysates by SDS-PAGE captured on ChemiDoc MP, or cell lysates by p24^CA ELISA. Before quantification, cells were washed with warm PBS and either scanned live (and harvested for protein analyses) or fixed in 3.7% paraformaldehyde/formaldehyde-PBS for subsequent analyses. Data from cell scans and SDS-PAGEs were quantitated using ImageJ and Image Lab software, respectively. To determine which pathway signal was used by a CS to inhibit HIV-1 gene expression, cells treated with CS were pre-treated with a specific pathway inhibitor and monitored for recovery of Gag-GFP expression. […] In parallel, the cell viability of each pathway inhibitor and CS treatment combination were monitored by cell density staining of fixed cells with 2% methylene blue (BioBasic, #MB0342) in 50% ethanol and read at OD664 on a TECAN Infinite® 200 PRO or Biotek Cytation5. […]
smiles,measurement,setting,value
C[C@H]1O[C@@H](O[C@H]2[C@@H](O)C[C@H](O[C@H]3[C@@H](O)C[C@H](O[C@H]4CC[C@@]5(C)[C@H](CC[C@@H]6[C@@H]5CC[C@]5(C)[C@@H](C7=CC(=O)OC7)CC[C@]65O)C4)O[C@@H]3C)O[C@@H]2C)C[C@H](O)[C@@H]1O [Digitoxin],recommended serum concentration in patients treated for heart conditions,[1],20 to 34 nM
C[C@H]1O[C@@H](O[C@H]2[C@@H](O)C[C@H](O[C@H]3[C@@H](O)C[C@H](O[C@H]4CC[C@@]5(C)[C@H](CC[C@@H]6[C@@H]5C[C@@H](O)[C@]5(C)[C@@H](C7=CC(=O)OC7)CC[C@]65O)C4)O[C@@H]3C)O[C@@H]2C)C[C@H](O)[C@@H]1O [Digoxin],IC90,[2],100 nM
"COc1ccc(C[C@H]2NC[C@H](O)[C@H]2OC(C)=O)cc1 [anisomycin, Anisomycin]",effect on cell density,[3],little to no effect
